Patent US12171909B2, “Implants having a drug load of an oxysterol and methods of use” (WARSAW ORTHOPEDIC, INC., priority 2015, dated 2024)

How the values were obtained:
solubility in water = assay type: physicochemical
Text: The Oxy133 can be solubilized in a non-aqueous solvent, such as for example, ethanol and mixed into a solution or suspension. In some embodiments, the Oxy 133 can be filtered by passing the Oxy 133 and solvent through a filter (e.g., 0.22 microns). This will remove bacteria and other larger-size particulates out of the composition. The Oxy 133 used in the composition can be micronized before it is mixed with solvents and other excipients. In various embodiments, the particle size of the Oxy 133 can range from about 1 micron to 250 microns. In some embodiments, the Oxy 133 can have a particle size of from about 5 microns to about 100 microns or from about 20 to 50 microns. The Oxy 133 in the solution or suspension can be added to a slurry of biodegradable polymer and/or the ceramic particles, mixed and, then optionally dried.

[1] = test system: rat two-level spine model; experiment: posterolateral spinal fusion in a rat two-level spine model (radiographs, manual palpation); assay type: in vivo; conditions: for spinal fusion (figure legend): bone growth at 4 and 8 weeks, fusion confirmed by manual palpation at 8 weeks; for bridging bone on radiographs: 4-week and 8-week timepoints, rat L3-L5; for fusion observed in rat spines (manual palpation): matrix of Oxy133, collagen and ceramic wetted with sterile water, two implants bilaterally in posterolateral space, 8-week sacrifice
Experimental: FIG. 6 illustrates uses of a formulation of compression resistant implants having 20 mg of Oxy133 on each side of the implant, in accordance with the implants described herein. […] Bone growth in rat test subjects can be seen after 4 and 8 weeks post-implantation, and fusion was confirmed by manual palpation of the spine segments at 8 weeks. […] A dry composition of a matrix containing Oxy133, collagen and ceramic as described herein was prepared and wetted with sterile water to be implanted in rat spines as shown in FIG. 6. The wetted matrix was cut in half with a razor blade to yield two halves. The two implants were molded into cylindrical shapes prior to insertion and were positioned bilaterally in the posterolateral space of each test subject. Each implant contained 20 mg Oxy133. Radiographs were taken roughly 10 minutes after the procedure, 4 weeks after the procedure, and 8 weeks after the procedure. […] Fusion was tested at 8-week sacrifice by manual palpation. […] A dry composition of a matrix containing Oxy133, collagen and ceramic as described herein was prepared and wetted with sterile water to be implanted in rat spines as shown in FIG. 6. The wetted matrix was cut in half with a razor blade to yield two halves. The two implants were molded into cylindrical shapes prior to insertion and were positioned bilaterally in the posterolateral space of each test subject. Each implant contained […] Oxy133. Radiographs were taken roughly 10 minutes after the procedure, 4 weeks after the procedure, and 8 weeks after the procedure. […] Fusion was tested at 8-week sacrifice by manual palpation.

Structure (SMILES): CCCCCC[C@](C)(O)[C@H]1CC[C@H]2[C@@H]3C[C@H](O)[C@H]4C[C@@H](O)CC[C@]4(C)[C@H]3CC[C@@]21C [Oxy133, (3S,5S,6S,8R,9S,10R,13S,14S,17S)-17-((S)-2-hydroxyoctan-2-yl)-10,13-dimethylhexadecahydro-1H-cyclopenta [a]phenanthrene-3,6-diol]
- solubility in water (solubility in water): only slightly soluble or insoluble in water
- spinal fusion (figure legend) ([1]; 20 mg of Oxy133 on each side, FIG. 6): yielded spinal fusion
- spinal fusion (figure legend) ([1]; 125 mg of Oxy133 on each side, FIG. 7): yielded spinal fusion
- bridging bone on radiographs ([1]; each implant 20 mg Oxy133): promoted bridging bone across the transverse processes of L3-L5
- bridging bone on radiographs ([1]; each implant 125 mg Oxy133): promoted bridging bone across the transverse processes of L3-L5
- fusion observed in rat spines (manual palpation) ([1]; each implant 20 mg Oxy133): 100%
- fusion observed in rat spines (manual palpation) ([1]; each implant 125 mg Oxy133): 100%
